TGI data for eight molecules are collected here from PubChem BioAssay (NCI).

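1) Cells in 96-well plates. 2) Compound, 48 h, 5 concentrations. 3) Linear interpolation between surrounding doses. 4) Unreached endpoint = highest concentration. TGI is the concentration that stops growth completely.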 Some results are limits rather than exact numbers.

Some test systems named below: A498 renal; COLO 205 colon; HL-60(TB) leukemia; KM12 colon; LOX IMVI melanoma; M14 melanoma; MALME-3M melanoma; MOLT-4 leukemia; NCI-H226 lung; OVCAR-8 ovarian; PC-3 prostate; SF-295 CNS; SK-MEL-28 melanoma; SN12C renal; U251 CNS; UACC-257 melanoma; UACC-62 melanoma; K-562 leukemia; NCI/ADR-RES ovarian.
Test in all cases: growth of human tumour cells (NCI), 48 h

Turning to `CC1(C)CC(O)C2=C(O1)C(=O)c1ncccc1C2=O` (configuration not stated), the TGI with A498 renal stood at 18.6 µM; in the assay on COLO 205 colon it was 4.89 µM; in the assay on HL-60(TB) leukemia, 4.15 µM; in the assay with KM12 colon, 8.17 µM; in the assay on LOX IMVI melanoma, 3.4 µM; with M14 melanoma, 4.22 µM. Also, the TGI in the assay on MALME-3M melanoma turned out to be 3.17 µM; in the assay on MOLT-4 leukemia it was 4.55 µM; in the assay on NCI-H226 lung, 3.74 µM; with OVCAR-8 ovarian it was 9.34 µM; in the assay on PC-3 prostate it was 9.57 µM; in the assay with SF-295 CNS, 3.35 µM. The TGI is 3.16 µM in the assay on SK-MEL-28 melanoma; 3.68 µM in the assay with SN12C renal; 3.21 µM in the assay with U251 CNS; 3.19 µM with UACC-257 melanoma; 3.15 µM in the assay with UACC-62 melanoma.
Turning to `CC(=O)OC1CC2CCN3C(=O)c4cc5c(cc4[C@H](C1OC(C)=O)C23)OCO5` (some centres not stated), the TGI in the assay on COLO 205 colon, with HL-60(TB) leukemia, in the assay on K-562 leukemia, with KM12 colon, in the assay on LOX IMVI melanoma and in the assay on M14 melanoma was greater than 100 µM each time. For the same molecule, the TGI in the assay on MALME-3M melanoma, with MOLT-4 leukemia, in the assay with NCI-H226 lung, in the assay on OVCAR-8 ovarian, with SF-295 CNS and in the assay with SK-MEL-28 melanoma was greater than 100 µM each time. The TGI with SN12C renal, in the assay with U251 CNS, in the assay on UACC-257 melanoma and with UACC-62 melanoma was greater than 100 µM throughout.
Turning to `CCN(CC)Cc1cc(Nc2c3ccccc3nc3c2[nH]c2ccccc23)cc(CN(CC)CC)c1O`, the TGI in the assay with A498 renal was 2.89 µM; in the assay with COLO 205 colon, 1.74 µM; with HL-60(TB) leukemia, greater than 100 µM; with K-562 leukemia, greater than 100 µM; with KM12 colon, 10.6 µM; with M14 melanoma, 1.33 µM. Besides, the TGI turned out to be 6.01 µM in the assay with NCI-H226 lung; 2.89 µM in the assay on OVCAR-8 ovarian; 2.75 µM in the assay with PC-3 prostate; 2.88 µM in the assay with SF-295 CNS; 5.3 µM in the assay on SK-MEL-28 melanoma; 2.18 µM in the assay on SN12C renal. The TGI with U251 CNS stood at 2.19 µM; in the assay on UACC-257 melanoma, 2.86 µM; in the assay with UACC-62 melanoma, 3.02 µM.
In the case of `CC(C)(C)c1cc(-c2cc(C(C)(C)C)[nH]n2)n[nH]1`, the TGI in the assay on A498 renal, in the assay with COLO 205 colon, with HL-60(TB) leukemia, in the assay on K-562 leukemia, in the assay on LOX IMVI melanoma and in the assay on M14 melanoma was greater than 100 µM throughout. Moreover, the TGI with MALME-3M melanoma, in the assay on MOLT-4 leukemia, in the assay on NCI-H226 lung, in the assay on PC-3 prostate, with SF-295 CNS and in the assay on SK-MEL-28 melanoma was greater than 100 µM in each case. Besides, the TGI in the assay on SN12C renal, with U251 CNS, in the assay with UACC-257 melanoma and in the assay with UACC-62 melanoma was greater than 100 µM in each case.
Consider `N#Cc1cnc(-n2[nH]c3c(c2=O)CCCC3)[nH]c1=O`, for which the TGI in the assay with A498 renal, in the assay with COLO 205 colon, in the assay on HL-60(TB) leukemia, in the assay with K-562 leukemia, in the assay with KM12 colon and in the assay on M14 melanoma was greater than 100 µM each time. Further, the TGI with MALME-3M melanoma, in the assay on MOLT-4 leukemia, in the assay with NCI-H226 lung, in the assay on PC-3 prostate, with SF-295 CNS and with SK-MEL-28 melanoma was greater than 100 µM in each case. Further, the TGI in the assay with SN12C renal, in the assay on U251 CNS, in the assay on UACC-257 melanoma and in the assay with UACC-62 melanoma was greater than 100 µM throughout.
Take `CC1(C)CC(=O)C(/C=N/C(N)=S)=C(O)C1`: the TGI in the assay on COLO 205 colon, in the assay with HL-60(TB) leukemia, in the assay with KM12 colon, in the assay with LOX IMVI melanoma, with M14 melanoma and in the assay with MOLT-4 leukemia was greater than 100 µM throughout. In addition, the TGI with NCI-H226 lung, with NCI/ADR-RES ovarian, with OVCAR-8 ovarian, in the assay on PC-3 prostate, with SF-295 CNS and in the assay on SK-MEL-28 melanoma was greater than 100 µM throughout. The TGI in the assay on SN12C renal, with U251 CNS, in the assay with UACC-257 melanoma and in the assay with UACC-62 melanoma was greater than 100 µM throughout.
Turning to `O=C(NC(=S)Nc1ccc2c(c1)Sc1ccccc1O2)c1ccc([N+](=O)[O-])cc1`, the TGI with COLO 205 colon, with HL-60(TB) leukemia, in the assay on K-562 leukemia, in the assay with KM12 colon, with LOX IMVI melanoma and in the assay on M14 melanoma was greater than 100 µM in each case. For the same molecule, the TGI with MALME-3M melanoma, with NCI-H226 lung, in the assay with NCI/ADR-RES ovarian, with OVCAR-8 ovarian, with PC-3 prostate and with SF-295 CNS was greater than 100 µM throughout. For the same molecule, the TGI with SK-MEL-28 melanoma, in the assay with SN12C renal, in the assay on U251 CNS, in the assay on UACC-257 melanoma and in the assay on UACC-62 melanoma was greater than 100 µM throughout.
In the case of `COc1ccc(NC(=S)N/N=C\c2ccc(NC(C)=O)cc2)cc1`, the TGI with COLO 205 colon, in the assay with HL-60(TB) leukemia, in the assay on KM12 colon, in the assay with LOX IMVI melanoma, with M14 melanoma and in the assay on MALME-3M melanoma was greater than 100 µM in each case. In addition, the TGI with MOLT-4 leukemia, with PC-3 prostate, in the assay on SF-295 CNS, with SK-MEL-28 melanoma, in the assay with SN12C renal and in the assay on U251 CNS was greater than 100 µM in each case. The TGI in the assay on UACC-257 melanoma and in the assay with UACC-62 melanoma was greater than 100 µM each time.
